In patent US6858638B2, “Substituted indazoles, compositions containing them, method of production and use” (Aventis Pharma S.A., priority 2002, dated 2005) one finds melting point and inhibition data, which are given here for 22 compounds.

Series [1] concerns the target T1, human FAK (Homo sapiens, UniProt Q05397).
T1 construct: The complete cDNA of human FAK; made in house; host or cells: baculovirus expression system (vector pFastBac HTc)
Description: FAK autophosphorylation inhibition, time resolved fluorescence (HTRF) assay. It counts as biochemical. The note with it: for inhibition at 10 µM: 10 μM (values without asterisk), read-out: FAK % inhib at 10 μM. In outline:
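His-tagged full-length human FAK from baculovirus (6.6 µg/ml) self-phosphorylates with 15 µM ATP in HEPES pH 7.2, MgCl2, vanadate, 1 h at 37 °C. HTRF detection (Eu-anti-phosphotyrosine / XL665-anti-His), 665/620 nm ratio; % inhibition vs untreated control, duplicate mean.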
(Time-resolved FRET reads energy transfer from a long-lived donor to a nearby acceptor.)

The target of series [2] is T2, human KDR enzyme (Homo sapiens, UniProt P35968).
T2 construct: The cytoplasmic domain of the human KDR enzyme; GST; made in house; host or cells: SF21 insect cells (baculovirus)
The experiment in a line: KDR substrate (PLCγ) phosphorylation, scintillation assay. It counts as biochemical. The note with it: 10 μM; read-out: KDR % inhib at 10 μM. The method in brief: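 GST-fused human KDR cytoplasmic domain from SF21 cells (about 60% pure, 100 ng) phosphorylated 2 μg of GST-PLCγ SH2-SH3 fragment. The trigger solution held γ33P-ATP with 2 μM cold ATP, in MOPS buffer pH 7.2 with Mg2+, Mn2+, vanadate and NaF. Reactions ran 1 h at 37 °C, were stopped with EDTA and counted by scintillation; results are % inhibition versus the no-compound control.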

Series [3] has as its target T3, human IGF1R cytoplasmic domain (Homo sapiens, UniProt P08069).
T3 construct: The human IGF1R cytoplasmic domain was cloned; made in house; host or cells: SF21 insect cells (baculovirus)
The experiment in a line: IGF1R autophosphorylation inhibition, time resolved fluorescence (HTRF) assay. It is filed as biochemical. Particulars: 10 μM; read-out: IGF1R % inhib at 10 μM. The method in brief: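 GST-tagged human IGF1R cytoplasmic domain from SF21 cells incubated with compound in 50 mM Hepes pH 7.5, 5 mM MnCl2, 50 mM NaCl, […] ATP. Autophosphorylation detected by HTRF (Eu-K anti-phosphotyrosine, XL665 anti-GST) after EDTA/KF stop; percentage inhibition versus no-compound control.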

Series [4] concerns the target T4, Aurora2 kinase (Homo sapiens, UniProt O14965).
T4 construct: A complete recombinant Aurora2 enzyme; His tag (N); made in house; host or cells: E. coli
T4 sequence (O14965 1-403): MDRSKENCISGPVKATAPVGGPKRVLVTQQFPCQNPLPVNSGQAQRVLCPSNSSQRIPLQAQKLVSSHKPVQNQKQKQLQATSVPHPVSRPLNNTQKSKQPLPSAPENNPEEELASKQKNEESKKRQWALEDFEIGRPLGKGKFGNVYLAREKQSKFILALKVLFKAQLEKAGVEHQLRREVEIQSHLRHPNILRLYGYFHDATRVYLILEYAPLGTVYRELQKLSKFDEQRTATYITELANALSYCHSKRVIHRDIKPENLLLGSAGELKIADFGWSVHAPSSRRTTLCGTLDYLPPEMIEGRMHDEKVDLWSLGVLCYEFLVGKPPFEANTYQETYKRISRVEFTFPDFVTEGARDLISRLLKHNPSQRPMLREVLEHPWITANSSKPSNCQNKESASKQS
Description: Aurora2 kinase radioactivity scintillation assay using nickel chelate (NuMA substrate). It is filed as biochemical. Particulars: 10 μM; read-out: Aurora2 % inhib at 10 μM. In outline: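 His-tagged full-length Aurora2 (0.02 μM, E. coli) phosphorylating His-tagged NuMA C-terminal fragment (0.5 μM) with 1 μM ATP plus [33P]-ATP, 30 min at 37 °C, pH 7.5 Tris buffer with MgCl2. Nickel-chelate scintillation read; percent inhibition versus no-compound control.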

Counter-ions that a name gives are not always drawn.

T2 sequence (P35968 786-1356 limits assumed): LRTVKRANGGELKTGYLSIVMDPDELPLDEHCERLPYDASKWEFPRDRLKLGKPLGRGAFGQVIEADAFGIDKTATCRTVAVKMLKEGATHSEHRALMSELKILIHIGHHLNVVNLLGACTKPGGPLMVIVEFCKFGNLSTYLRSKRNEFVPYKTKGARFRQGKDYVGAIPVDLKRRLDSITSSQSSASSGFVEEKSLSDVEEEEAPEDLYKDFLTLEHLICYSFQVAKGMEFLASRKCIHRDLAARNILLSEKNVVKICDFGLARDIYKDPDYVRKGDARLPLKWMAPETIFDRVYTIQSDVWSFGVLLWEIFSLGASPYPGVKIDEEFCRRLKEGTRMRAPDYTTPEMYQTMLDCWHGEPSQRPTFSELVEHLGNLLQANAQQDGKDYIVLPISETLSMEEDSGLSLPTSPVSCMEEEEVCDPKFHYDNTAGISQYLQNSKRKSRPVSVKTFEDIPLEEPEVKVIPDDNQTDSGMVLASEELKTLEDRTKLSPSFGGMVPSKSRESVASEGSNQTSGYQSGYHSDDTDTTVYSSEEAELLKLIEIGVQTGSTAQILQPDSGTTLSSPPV
T3 sequence (P08069 960-1367 limits assumed): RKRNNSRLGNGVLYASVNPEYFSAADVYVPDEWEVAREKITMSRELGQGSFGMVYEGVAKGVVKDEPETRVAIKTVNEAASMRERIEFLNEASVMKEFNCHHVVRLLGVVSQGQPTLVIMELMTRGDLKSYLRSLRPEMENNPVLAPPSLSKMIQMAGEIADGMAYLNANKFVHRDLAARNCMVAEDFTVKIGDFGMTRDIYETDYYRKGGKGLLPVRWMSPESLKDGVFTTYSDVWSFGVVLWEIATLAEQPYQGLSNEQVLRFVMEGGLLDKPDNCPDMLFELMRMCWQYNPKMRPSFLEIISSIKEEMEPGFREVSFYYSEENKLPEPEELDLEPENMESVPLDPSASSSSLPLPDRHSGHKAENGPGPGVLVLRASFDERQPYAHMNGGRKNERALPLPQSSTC
T1 sequence (Q05397 whole entry): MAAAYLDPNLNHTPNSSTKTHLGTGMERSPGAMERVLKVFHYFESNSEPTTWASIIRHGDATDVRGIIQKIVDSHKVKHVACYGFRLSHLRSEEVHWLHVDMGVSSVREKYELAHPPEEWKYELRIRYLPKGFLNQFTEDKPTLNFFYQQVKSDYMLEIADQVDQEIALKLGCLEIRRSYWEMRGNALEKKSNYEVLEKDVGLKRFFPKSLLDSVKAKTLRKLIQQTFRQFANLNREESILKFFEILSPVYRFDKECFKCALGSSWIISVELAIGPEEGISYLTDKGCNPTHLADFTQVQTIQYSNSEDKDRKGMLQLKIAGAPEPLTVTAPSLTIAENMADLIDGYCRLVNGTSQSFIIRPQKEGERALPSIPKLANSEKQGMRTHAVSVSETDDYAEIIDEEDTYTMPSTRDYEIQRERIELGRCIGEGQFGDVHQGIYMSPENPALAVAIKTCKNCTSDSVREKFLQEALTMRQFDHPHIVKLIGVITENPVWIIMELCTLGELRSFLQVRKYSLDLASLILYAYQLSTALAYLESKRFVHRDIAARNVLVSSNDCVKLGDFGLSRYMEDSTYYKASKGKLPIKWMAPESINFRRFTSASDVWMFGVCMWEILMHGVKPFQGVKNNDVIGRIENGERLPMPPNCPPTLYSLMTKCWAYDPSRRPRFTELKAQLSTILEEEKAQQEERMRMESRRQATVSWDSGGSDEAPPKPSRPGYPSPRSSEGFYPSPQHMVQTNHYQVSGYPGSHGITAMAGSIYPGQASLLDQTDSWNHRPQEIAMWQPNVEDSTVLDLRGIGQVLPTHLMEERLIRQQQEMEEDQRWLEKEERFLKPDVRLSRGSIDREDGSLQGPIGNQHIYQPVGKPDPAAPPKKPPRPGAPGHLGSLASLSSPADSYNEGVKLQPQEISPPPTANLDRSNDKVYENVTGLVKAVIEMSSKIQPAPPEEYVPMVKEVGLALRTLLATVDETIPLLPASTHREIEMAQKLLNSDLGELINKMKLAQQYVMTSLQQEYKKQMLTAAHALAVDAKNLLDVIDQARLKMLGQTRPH

For orientation: melting point means the temperature of the solid-liquid transition. `O=S(=O)(Oc1ccc2[nH]ncc2c1)c1cccc(F)c1` (as salt: benzenesulfonate) [Example 17, 1H-Indazol-5-yl 3-fluorobenzenesulfonate] registered a melting point of 104 °C.
Same read-out and setting: with `O=C(Nc1n[nH]c2ccc(NS(=O)(=O)c3cc(F)cc(F)c3)cc12)c1ccccc1` (hydrate or solvate) [Example 46, N-[5-(3,5-Difluorobenzenesulfonylamino)-1H-indazol-3-yl]benzamide] the figure was 246 °C; with `CC(=O)Nc1n[nH]c2ccc(NS(=O)(=O)c3cccc(F)c3)cc12` (hydrate or solvate) [Example 28, N-[5-(3-Fluorobenzenesulfonylamino)-1H-indazol-3-yl)acetamide], 246 °C.
For the compound `O=S(=O)(Nc1ccc2[nH]ncc2c1)c1ccc(Cl)c(Cl)c1` [Example 14, 3,4-Dichloro-N-(1H-indazol-5-yl)benzenesulfonamide], the melting point was 209 °C. The inhibition at 10 µM in series [1] is 42%.
Turning to `N#Cc1n[nH]c2ccc(NS(=O)(=O)c3cccc(F)c3)cc12` [Example 4, N-(3-Cyano-1H-indazol-5-yl)-3-fluorobenzenesulfonamide], the melting point was 227 °C. The inhibition at 30 µM in series [1] (30 μM (values marked *), read-out: FAK % inhib at 30* μM) was 85%. Also, the inhibition at 10 µM in series [2] came to 24%.
Compound `CC(=O)Nc1ccccc1-c1n[nH]c2ccc(NS(=O)(=O)c3cccc(F)c3)cc12` (hydrate or solvate) [Example 47, N-{2-[5-(3-Fluorobenzenesulfonylamino)-1H-indazol-3-yl]phenyl}acetamide] gave a melting point of 135 °C.
On the same count and under the same terms, the figure for `CS(=O)(=O)Nc1n[nH]c2ccc(NS(=O)(=O)c3cccc(F)c3)cc12` (hydrate or solvate) [Example 27, 3-Fluoro-N-(3-methylsulfonylamino-1H-indazol-5-yl)benzenesulfonamide] is 230 °C.
Same read-out and setting: the figure for `CS(=O)(=O)c1ccccc1S(=O)(=O)Nc1ccc2[nH]nc(C#N)c2c1` (hydrate or solvate) [Example 5, N-(3-Cyano-1H-indazol-5-yl)-2-methylsulfonylbenzenesulfonamide] is 272 °C; for `CS(=O)(=O)c1ccccc1S(=O)(=O)Nc1ccc2[nH]nc(-c3ccc(C(=O)O)cc3)c2c1` (hydrate or solvate) [Example 69, 4-[5-(2-Methylsulfonylbenzenesulfonamino)-1H-indazol-3-yl]benzoic acid] it is 199 °C.
Regarding `CS(=O)(=O)c1ccccc1S(=O)(=O)Nc1ccc2[nH]nc(-c3ccc(-c4ccccc4)cc3)c2c1` [Example 170, N-(3-Biphenyl-4-yl-1H-indazol-5-yl)-2-methanesulfonyl-benzenesulfonamide], the inhibition at 10 µM in series [3] was determined as 41%; in series [1], 62%; in series [4], 69%; in series [2], 60%.
On the same counts, the results for `CC1(C)[C@H]2CCC1(CS(=O)(=O)Nc1ccc3[nH]nc(-c4ccccc4)c3c1)C(=O)C2` [Example 148, C-(7,7-Dimethyl-2-oxo-bicyclo[2.2.1]hept-1-yl)-N-(3-phenyl-1H-indazol-5-yl)-methanesulfonamide] are 30%, 36%, 77% and 61%.
The matching figures for `Cc1cccc(-c2n[nH]c3ccc(NS(=O)(=O)c4ccccc4S(C)(=O)=O)cc23)c1` [Example 165, 2-Methanesulfonyl-N-(3-m-tolyl-1H-indazol-5-yl)-benzenesulfonamide]: 71%, 96%, 92% and 58%.
Turning to `Nc1cc(Cl)cc(Cl)c1S(=O)(=O)Nc1ccc2[nH]nc(-c3ccccc3)c2c1` [Example 159, 2-Amino-4,6-dichloro-N-(3-phenyl-1H-indazol-5-yl)-benzenesulfonamide], the inhibition at 10 µM in series [3] stood at 58%; in series [1], 53%; in series [4], 77%; in series [2], 86%.
On the same counts, the results for `CS(=O)(=O)c1ccccc1S(=O)(=O)Nc1ccc2[nH]nc(-c3cccc4c3oc3ccccc34)c2c1` [Example 169, N-(3-(Dibenzofuran-4-yl)-1H-indazol-5-yl)-2-methanesulfonyl-benzenesulfonamide] are 13%, 22%, 52% and 66%.
For the compound `CS(=O)(=O)c1ccccc1S(=O)(=O)Nc1ccc2[nH]nc(-c3ccc(CO)cc3)c2c1` [Example 191, N-[3-(4-Hydroxymethylphenyl)-1H-indazol-5-yl]-2-methanesulfonyl-benzenesulfonamide], the inhibition at 10 µM in series [3] was determined as 73%; in series [1] it was 96%; in series [4], 88%; in series [2] it was 45%.
The matching figures for `O=[N+]([O-])c1ccc(S(=O)(=O)Nc2ccc3[nH]nc(-c4ccccc4)c3c2)cc1` [Example 119, 4-Nitro-N-(3-phenyl-1H-indazol-5-yl)benzenesulfonamide]: 50%, 25%, 50% and 78%.
As to `O=S(=O)(Nc1ccc2[nH]nc(-c3cc4ccccc4[nH]3)c2c1)c1cccc(F)c1` [Example 85, 3-Fluoro-N-[3-(1H-indol-2-yl)-1H-indazol-5-yl]benzenesulfonamide], the inhibition at 10 µM in series [3] came to 99%; in series [1], 95%; in series [4], 100%; in series [2], 99%.
Consider `CS(=O)(=O)c1ccccc1S(=O)(=O)Nc1ccc2[nH]nc(-c3ccc(C(=O)O)cc3)c2c1` [Example 69, 4-[5-(2-Methylsulfonylbenzenesulfonamino)-1H-indazol-3-yl]benzoic acid], for which the inhibition at 10 µM in series [3] was found to be 61%; in series [1] it was 98%; in series [4], 99%; in series [2], 73%.
On the same counts, the results for `CCCCS(=O)(=O)Nc1ccc2[nH]nc(-c3ccccc3)c2c1` [Example 129, N-(3-Phenyl-1H-indazol-5-yl)-butanesulfonamide] are 30%, 46%, 64% and 58%.
Consider `O=S(=O)(Nc1ccc2[nH]nc(-c3cc4ccccc4[nH]3)c2c1)c1ccccc1` [Example 82, N-[3-(1H-Indol-2-yl)-1H-indazol-5-yl]benzenesulfonamide], for which the inhibition at 10 µM is 100% in series [3], 93% in series [1], 100% in series [4] and 100% in series [2].
Take `CS(=O)(=O)c1ccccc1S(=O)(=O)Nc1ccc2[nH]nc(-c3ccccc3-c3ccccc3)c2c1` [Example 173, N-(3-Biphenyl-2-yl-1H-indazol-5-yl)-2-methanesulfonyl-benzenesulfonamide]: the inhibition at 10 µM in series [3] came out at 27%; in series [1] it was 62%; in series [4] it was 77%; in series [2], 32%.
The matching figures for `Cc1cc(C)cc(-c2n[nH]c3ccc(NS(=O)(=O)c4ccccc4S(C)(=O)=O)cc23)c1` [Example 179, 2-Methanesulfonyl-N-[3-(3,5-dimethylphenyl)-1H-indazol-5-yl]benzenesulfonamide]: 72%, 96%, 93% and 49%.
